Results on 16 compounds are retold here after patent US20020155192A1, “Yeast transport isoforms” (priority 2000, published 2002).

What all share (assay type): biochemical
Experiment [1] addresses T1, Odc1p (Saccharomyces cerevisiae, UniProt Q03028).
T1 construct: made in house; host or cells: S. cerevisiae odc1Δodc2Δ (YPH499 background) carrying pYES2-based pODC1; purified from mitochondria on Ni-NTA agarose
T1 sequence (Q03028 1-310): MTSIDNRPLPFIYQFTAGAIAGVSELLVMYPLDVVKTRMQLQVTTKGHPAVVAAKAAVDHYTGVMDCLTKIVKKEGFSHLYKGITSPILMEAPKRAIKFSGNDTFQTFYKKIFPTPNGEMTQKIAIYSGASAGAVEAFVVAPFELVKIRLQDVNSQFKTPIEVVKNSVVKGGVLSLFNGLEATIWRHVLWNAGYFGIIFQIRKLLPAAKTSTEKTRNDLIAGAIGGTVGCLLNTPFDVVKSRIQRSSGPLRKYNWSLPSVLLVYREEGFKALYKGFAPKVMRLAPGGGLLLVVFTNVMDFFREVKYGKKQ
In words: Dependence on internal substrate of [14C]oxoglutarate uptake into proteoliposomes reconstituted with recombinant Odc1p. The following applies: for [14C]oxoglutarate transport: proteoliposomes preloaded with 20 mM internal substrate, 0.6 mM [14C]oxoglutarate, 45 seconds. The procedure:
(§1) Reconstitution of the ODC proteins into liposomes—Purified ODC proteins were reconstituted by cyclic removal of the detergent with a hydrophobic column (13). The composition of the initial mixture used for reconstitution was: 200 μl of purified isoform (0.3-0.4 μg of protein), 70 μl of 10% Triton X-114, 100 μl of 10% phospholipids in the form of sonicated liposomes, 20 mM oxoglutarate (except where otherwise indicated), 10 mM Pipes (pH 7.0), 0.7 mg of cardiolipin (Sigma) and water to a final volume of 700 μl. These components were mixed thoroughly, and the mixture was recycled 13 times through an Amberlite column (Supelco) (3.0 cm×0.5 cm) preequilibrated with a buffer containing 10 mM Pipes (pH 7.0) and with the substrate at the same concentration as in the starting mixture. All operations were performed at 4° C., except the passages through Amberlite, which were carried out at room temperature.
(§2) External substrate was removed from proteoliposomes on a Sephadex G-75 column preequilibrated with buffer F (50 mM NaCl and 10 mM PIPES, pH 7.0). Transport at 25° C. was started by adding [^14C]oxoglutarate (unless otherwise indicated) to the proteoliposomes, and terminated by addition of 30 mM pyridoxal 5′-phosphate and 10 mM bathophenanthroline (the “inhibitor-stop” method (13)). In controls, inhibitors were added with the labelled substrate. The external radioactivity was removed on Sephadex G-75 and the internal radioactivity was measured. […] The initial rate of transport was calculated in mmol/min per g protein from the time course of isotope equilibration (13). Various other transport activities were also assayed by the inhibitor-stop method. For efflux measurements, the internal substrate pool of the proteoliposomes was made radioactive by carrier-mediated exchange equilibration (13) with 0.1 mM [^14C]oxoglutarate added at high specific radioactivity. After 60 min, the residual external radioactivity was removed by passing the proteoliposomes again through a column of Sephadex G-75. Efflux was started by adding unlabelled external substrate or buffer F alone and terminated by adding the inhibitors indicated above.
(§3) The substrate specificity of purified Odc1p and Odc2p was investigated further by measuring the uptake of [^14C]oxoglutarate into proteoliposomes which had been preloaded with various substrates.
(§4) Proteoliposomes were preloaded internally with various substrates (concentration, 20 mM). Transport was started by adding [^14C]oxoglutarate (final concentration, 0.6 mM) and terminated after 45 seconds.

The target of experiment [2] is T2, Odc2p (Saccharomyces cerevisiae, UniProt Q99297).
T2 construct: made in house; host or cells: S. cerevisiae odc1Δodc2Δ (YPH499 background) carrying pYES2-based pODC2; purified from mitochondria on Ni-NTA agarose
T2 sequence (Q99297 1-307): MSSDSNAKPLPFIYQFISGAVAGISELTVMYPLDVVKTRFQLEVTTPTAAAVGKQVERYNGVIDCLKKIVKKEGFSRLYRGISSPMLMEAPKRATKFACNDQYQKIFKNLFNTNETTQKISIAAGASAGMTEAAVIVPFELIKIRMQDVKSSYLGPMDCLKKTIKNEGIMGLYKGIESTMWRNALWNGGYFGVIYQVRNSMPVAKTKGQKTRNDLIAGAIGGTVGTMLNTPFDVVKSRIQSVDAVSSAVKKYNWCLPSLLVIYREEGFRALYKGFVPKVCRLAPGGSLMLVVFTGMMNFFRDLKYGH
In words: Dependence on internal substrate of [14C]oxoglutarate uptake into proteoliposomes reconstituted with recombinant Odc2p. As to conditions: for [14C]oxoglutarate transport: proteoliposomes preloaded with 20 mM internal substrate, 0.6 mM [14C]oxoglutarate, 45 seconds. The procedure: as §1, §2, §3, §4

Experiment [3] concerns the target T1, Odc1p. In words: Effect of inhibitors and external compounds on the [14C]oxoglutarate/oxoglutarate exchange by proteoliposomes reconstituted with Odc1p. As to conditions: for effect of oxomonocarboxylates on the rate of uptake of 0.4 mM oxoglutarate (in words): 8 mM, 20 times greater than the substrate, data not shown. The procedure: FIG. 5. Effect of dicarboxylates and 2-oxodicarboxylates with different carbon chain length on the rate of [^14C]oxoglutarate uptake into proteoliposomes reconstituted with recombinant Odc1p. Proteoliposomes were preloaded with 20 mM oxoglutarate and reconstituted with recombinant Odc1p. Transport was initiated by the addition of 0.4 mM [^14C]oxoglutarate and terminated after 45 seconds. Oxalate, malonate, succinate, glutarate, adipate, pimelate, suberate (▪) and the corresponding 2-oxoacids (●) were added simultaneously with [1^4C]oxoglutarate at 4.0 mM concentration.
as §1, §2
(§5) In addition, the ability of non-radioactive potential substrates to inhibit the oxoglutarate/oxoglutarate exchange was examined.
Proteoliposomes were preloaded internally with 20 mM oxoglutarate and transport was initiated by the addition of 0.4 mM [^14C]oxoglutarate.

Experiment [4] addresses T2, Odc2p. In words: Effect of inhibitors and external compounds on the [14C]oxoglutarate/oxoglutarate exchange by proteoliposomes reconstituted with Odc2p. The following applies: for effect of oxomonocarboxylates on the rate of uptake of 0.4 mM oxoglutarate (in words): 8 mM, 20 times greater than the substrate. The procedure: as §1, §2, §5
Proteoliposomes were preloaded internally with 20 mM oxoglutarate and transport was initiated by the addition of 0.4 mM [^14C]oxoglutarate. The incubation time was 45 seconds. Thiol reagents and α-cyanocinnamate were added 2 min before the labelled substrate; the other inhibitors and external substrates were added together with [^14C]oxoglutarate. The final concentration of the inhibitors was 4 mM, except for mercurials (10 μM), carboxyatractyloside (0.1 mM), N-ethylmaleimide and α-cyanocinnamate (2 mM).

Where [5] appears, read: Odc1p, proteoliposomes preloaded with various substrates.
[6] abbreviates: Odc2p, proteoliposomes preloaded with various substrates.
The mark [7] stands for this setting: Odc1p, added with 0.4 mM [14C]oxoglutarate, 4.0 mM in FIG. 5, partly data not shown.

Like-named read-outs stand apart in the source and are kept apart here.

As for `NC(CCCC(=O)O)C(=O)O` (stereo not shown) [2-aminoadipate], the “[14C]oxoglutarate uptake with the internal substrate (in words)” value (from here on “[14C]oxoglutarate uptake”) on Odc1p [1] (setting [5]) and on Odc2p [2] (setting [6]) was “no exchange” each time.
With `NC(CCCCC(=O)O)C(=O)O` (stereo not shown) [2-aminopimelate], the “[14C]oxoglutarate uptake” value at Odc1p [1] (setting [5]) and on Odc2p [2] (setting [6]) was “no exchange” each time.
Consider `CC[C@H](O)C(=O)O` [2-hydroxybutyrate], for which the “[14C]oxoglutarate uptake” value at Odc1p [1] (setting [5]) and at Odc2p [2] (setting [6]) was “no exchange” each time.
With `CCC(=O)C(=O)O` [2-oxobutyrate], the “effect of oxomonocarboxylates on the rate of uptake of 0.4 mM oxoglutarate (in words)” value on Odc1p [3] (Odc1p) was “did not influence”; at Odc2p [4] (Odc2p, data not shown) it was “did not influence”. The “[14C]oxoglutarate uptake” value at Odc1p [1] (setting [5]) and at Odc2p [2] (setting [6]) was “no exchange” throughout.
On to `CCCC(=O)C(=O)O` [2-oxovalerate], for which the “effect of oxomonocarboxylates on the rate of uptake of 0.4 mM oxoglutarate (in words)” value on Odc1p [3] (Odc1p) is listed as “did not influence”; at Odc2p [4] (Odc2p, data not shown), “did not influence”. For the same compound, the “[14C]oxoglutarate uptake” value at Odc1p [1] (setting [5]) and at Odc2p [2] (setting [6]) was “no exchange” throughout.
`Nc1ncnc2c1ncn2[C@@H]1O[C@H](COP(=O)(O)OP(=O)(O)OP(=O)(O)O)[C@@H](O)[C@H]1O` [ATP]: the “[14C]oxoglutarate uptake” value at Odc1p [1] (setting [5]) and on Odc2p [2] (setting [6]) was “no exchange” each time.
`O=C(O)CCCCC(=O)O` [Adipate]: the “effect of non-radioactive potential substrates on the rate of oxoglutarate uptake (in words)” value at Odc1p [3] and on Odc2p [4] was “significant inhibition” each time. The “[14C]oxoglutarate transport” value was 65.0 mmol/min per g protein on Odc1p [1] (Odc1p) and 16.7 mmol/min per g protein on Odc2p [2] (Odc2p). For the same compound, the “[14C]oxoglutarate uptake” value at Odc1p [1] (setting [5]) and at Odc2p [2] (setting [6]) was “taken up efficiently” throughout.
Regarding `O=C(O)C[C@@H](O)C(=O)O` [D-malate], the “[14C]oxoglutarate transport” value at Odc1p [1] (Odc1p) was 52.1 mmol/min per g protein; at Odc2p [2] (Odc2p), 10.5 mmol/min per g protein. The “[14C]oxoglutarate uptake” value at Odc1p [1] (setting [5]) and at Odc2p [2] (setting [6]) was “taken up efficiently” each time.
For `O=C(O)/C=C/C(=O)O` [Fumarate], the “effect of non-radioactive potential substrates on the rate of oxoglutarate uptake (in words)” value is recorded as “no effect” at Odc1p [3] (setting [7]) and “no effect” at Odc2p [4] (Odc2p, data not shown). For the same compound, the “[14C]oxoglutarate transport” value at Odc1p [1] (Odc1p) is on record as 8.9 mmol/min per g protein; on Odc2p [2] (Odc2p), 2.4 mmol/min per g protein. Also, the “[14C]oxoglutarate uptake” value on Odc1p [1] (setting [5]) and on Odc2p [2] (setting [6]) was “very low activity” throughout.
With `O=C(O)/C=C\C(=O)O` [Maleate], the “effect of non-radioactive potential substrates on the rate of oxoglutarate uptake (in words)” value is given as “no effect” at Odc1p [3] (setting [7]) and “no effect” at Odc2p [4] (Odc2p, data not shown). In addition, the “[14C]oxoglutarate transport” value is 7.1 mmol/min per g protein at Odc1p [1] (Odc1p) and 2.6 mmol/min per g protein at Odc2p [2] (Odc2p). Moreover, the “[14C]oxoglutarate uptake” value on Odc1p [1] (setting [5]) and at Odc2p [2] (setting [6]) was “very low activity” in each case.
As for `O=C(O)CC(=O)O` [Malonate], the “effect of non-radioactive potential substrates on the rate of oxoglutarate uptake (in words)” value is recorded as “virtually no effect” on Odc1p [3] (setting [7]) and “virtually no effect” on Odc2p [4] (Odc2p, data not shown). The “[14C]oxoglutarate transport” value at Odc1p [1] (Odc1p) stood at 4.8 mmol/min per g protein; at Odc2p [2] (Odc2p), 2.2 mmol/min per g protein. Also, the “[14C]oxoglutarate uptake” value on Odc1p [1] (setting [5]) and on Odc2p [2] (setting [6]) was “very low activity” throughout.
`O=C(O)CCCCCC(=O)O` [Pimelate]: the “effect of non-radioactive potential substrates on the rate of oxoglutarate uptake (in words)” value on Odc1p [3] and at Odc2p [4] was “significant inhibition” each time. For the same compound, the entries for the “[14C]oxoglutarate transport” value on Odc1p [1] (Odc1p) and at Odc2p [2] (Odc2p) were 48.4 mmol/min per g protein and 10.4 mmol/min per g protein, respectively. Moreover, the “[14C]oxoglutarate uptake” value on Odc1p [1] (setting [5]) and at Odc2p [2] (setting [6]) was “taken up efficiently” in each case.
As to `O=C(O)CCCCCCC(=O)O` [Suberate], the “effect of non-radioactive potential substrates on the rate of oxoglutarate uptake (in words)” value on Odc1p [3] and at Odc2p [4] was “virtually no effect” each time. In addition, the figures for the “[14C]oxoglutarate transport” value at Odc1p [1] (Odc1p) and on Odc2p [2] (Odc2p) were 2.8 mmol/min per g protein and 0.4 mmol/min per g protein, respectively. Also, the “[14C]oxoglutarate uptake” value at Odc1p [1] (setting [5]) and on Odc2p [2] (setting [6]) was “very low activity” in each case.
Take `O=S(O)(O)=S` [thiosulfate]: the “[14C]oxoglutarate uptake” value at Odc1p [1] and on Odc2p [2] was “no exchange” each time.
Take `N#C/C(=C\c1ccccc1)C(=O)O` [α-Cyanocinnamate]: the “Inhibition (%) of [14C]oxoglutarate/oxoglutarate exchange” value at Odc1p [3] (Odc1p, 20 mM internal oxoglutarate, 0.4 mM [14C]oxoglutarate, 45 seconds, inhibitors 4 mM, except mercurials 10 μM, carboxyatractyloside 0.1 mM, N-ethylmaleimide and α-cyanocinnamate 2 mM) is given as 86%; on Odc2p [4] (Odc2p, 20 mM internal oxoglutarate, 0.4 mM [14C]oxoglutarate, 45 seconds, inhibitors 4 mM, except mercurials 10 μM, carboxyatractyloside 0.1 mM, N-ethylmaleimide and α-cyanocinnamate 2 mM) it was 80%. In addition, the “inhibition of [14C]oxoglutarate/oxoglutarate exchange (in words)” value against Odc1p [3] (Odc1p, Table III) was “inhibited strongly”; at Odc2p [4] (Odc2p, Table III), “inhibited strongly”.
hydroxyglutarate: the “effect of non-radioactive potential substrates on the rate of oxoglutarate uptake (in words)” value at Odc1p [3] and at Odc2p [4] was “slightly less effective than glutarate” each time.
